Patent US8242274B2, “Triazolopyridine kinase inhibitors useful for the treatment of degenerative and inflammatory diseases” (Galapagos NV, priority 2008, dated 2012)

Tests used:
[1] = Microsomal stability, human; type: in vitro ADME; details: human liver microsomes, 3 μM compound, 37° C.
Description: A 10 mM stock solution of compound in DMSO was diluted 1000 fold in a 182 mM phosphate buffer pH 7.4 in a 96 deep well plate (Greiner, Cat no. 780285) and pre-incubated at 37° C.
40 μL of deionised water was added to a well of a polypropylene Matrix 2D barcode labelled storage tube (Thermo Scientific) and pre-incubated at 37° C.
A Glucose-6-phosphate-dehydrogenase (G6PDH) working stock solution was prepared in 182 mM phosphate buffer pH7.4 and placed on ice before use. A co-factor containing MgCl2, glucose-6-phosphate and NADP+ was prepared in deionised water and placed on ice before use.
A final working solution containing liver microsomes (Xenotech) of a species of interest (human, mouse, rat, dog), previously described G6PDH and co-factors was prepared and this mix was incubated for no longer than 20 minutes at room temperature.
30 μL of the pre-heated compound dilution was added to 40 μL of pre-heated water in the Matrix tubes and 30 μL of the microsomal mix was added. Final reaction concentrations were 3 μM compound, 1 mg microsomes, 0.4 U/mL GDPDH, 3.3 mM MgCl2, 3.3 mM glucose-6-phosphate and 1.3 mM NADP+.
To measure percentage remaining of compound at time zero MeOH or ACN was added (1:1) to the well before adding the microsomal mix. The plates were sealed with Matrix Sepra Seals™ (Matrix, Cat. No. 4464) and shaken for a few seconds ensure complete mixing of all components.
The samples which were not stopped are incubated at 37° C., 300 rpm and after 1 hour of incubation the reaction was stopped with MeOH or ACN (1:1).
After stopping the reaction the samples were mixed and placed on ice for 30 min to precipitate the proteins. The plates were then centrifuged 30 min at 1200 rcf at 4° C. and the supernatant was transferred to a 96 v-bottom PP plate (Greiner, 651201) for analysis on LCMS.
These plates were sealed with sealing mats (MA96RD-04S) of www.kinesis.co.uk and samples were measured at room temperature on LCMS (ZQ 1525 from Waters) under optimized conditions using Quanoptimize to determine the appropriate mass of the parent molecule.
The samples were analyzed on LCMS with a flow rate of 1 mL/min. Solvent A was 15 mM ammonia and solvent B was methanol or acetonitrile, depending on the stop solution used. The samples were run under positive ion spray on an XBridge C18 […] (2.1×30 mm) column, from Waters.
Peak area from the parent compound at time 0 was considered to be 100% remaining. The percentage remaining after 1 hour incubation was calculated from time 0 and was calculated as the percentage remaining. The solubility of the compound in the final test concentration in buffer is inspected by microscope and results are reported.
The data on microsomal stability are expressed as a percentage of the total amount of compound remaining after 60 minutes.

[2] = molecular target: T1, Recombinant human JAK1 catalytic domain (Homo sapiens, UniProt P23458); experiment: JAK1 inhibition assay; type: biochemical; details: semi-quantitative score
T1 construct: Recombinant human JAK1 catalytic domain (amino acids 850-1154; catalog number 08-144); purchased Carna Biosciences 08-144
T1 sequence (P23458 850-1154): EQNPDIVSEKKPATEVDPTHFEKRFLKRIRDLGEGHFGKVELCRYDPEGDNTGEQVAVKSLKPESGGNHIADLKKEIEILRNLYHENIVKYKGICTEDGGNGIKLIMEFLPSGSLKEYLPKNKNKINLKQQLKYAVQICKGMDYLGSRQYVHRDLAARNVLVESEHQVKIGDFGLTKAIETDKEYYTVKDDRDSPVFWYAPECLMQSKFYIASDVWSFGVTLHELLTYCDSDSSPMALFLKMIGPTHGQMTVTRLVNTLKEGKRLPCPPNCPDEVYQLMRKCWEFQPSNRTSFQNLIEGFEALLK
Description: Recombinant human JAK1 catalytic domain (amino acids 850-1154; catalog number 08-144) was purchased from Carna Biosciences. 10 ng of JAK1 was incubated with 12.5 μg polyGT substrate (Sigma catalog number P0275) in kinase reaction buffer (15 mM Tris-HCl pH 7.5, 1 mM DTT, 0.01% Tween-20, 10 mM MgCl2, 2 μM non-radioactive ATP, 0.25 μCi 33P-gamma-ATP (GE Healthcare, catalog number AH9968) final concentrations) with or without 5 μL containing test compound or vehicle (DMSO, 1% final concentration), in a total volume of 25 μL, in a polypropylene 96-well plate (Greiner, V-bottom). After 45 min at 30° C., reactions were stopped by adding of 25 μL/well of 150 mM phosphoric acid. All of the terminated kinase reaction was transferred to prewashed (75 mM phosphoric acid) 96 well filter plates (Perkin Elmer catalog number 6005177) using a cell harvester (Perkin Elmer). Plates were washed 6 times with 300 μL per well of a 75 mM phosphoric acid solution and the bottom of the plates was sealed. 40 μL/well of Microscint-20 was added, the top of the plates was sealed and readout was performed using the Topcount (Perkin Elmer). Kinase activity was calculated by subtracting counts per minute (cpm) obtained in the presence of a positive control inhibitor (10 μM staurosporine) from cpm obtained in the presence of vehicle. The ability of a test compound to inhibit this activity was determined as: Percentage inhibition=((cpm determined for sample with test compound present−cpm determined for sample with positive control inhibitor)divided by(cpm determined in the presence of vehicle−cpm determined for sample with positive control inhibitor))*100%.
(§1) Dose dilution series were prepared for the compounds enabling the testing of dose-response effects in the JAK1 assay and the calculation of the IC50 for each compound. Each compound was routinely tested at concentration of 20 μM followed by a 1/3 serial dilution, 8 points (20 μM-6.67 μM-2.22 μM-740 nM-247 nM-82 nM-27 nM-9 nM) in a final concentration of 1% DMSO.

[3] = molecular target: T2, Recombinant human JAK2 catalytic domain (Homo sapiens, UniProt O60674); experiment: JAK2 inhibition assay; type: biochemical; details: semi-quantitative score
T2 construct: Recombinant human JAK2 catalytic domain (amino acids 808-1132; catalog number PV4210); purchased Invitrogen PV4210
T2 sequence (O60674 808-1132): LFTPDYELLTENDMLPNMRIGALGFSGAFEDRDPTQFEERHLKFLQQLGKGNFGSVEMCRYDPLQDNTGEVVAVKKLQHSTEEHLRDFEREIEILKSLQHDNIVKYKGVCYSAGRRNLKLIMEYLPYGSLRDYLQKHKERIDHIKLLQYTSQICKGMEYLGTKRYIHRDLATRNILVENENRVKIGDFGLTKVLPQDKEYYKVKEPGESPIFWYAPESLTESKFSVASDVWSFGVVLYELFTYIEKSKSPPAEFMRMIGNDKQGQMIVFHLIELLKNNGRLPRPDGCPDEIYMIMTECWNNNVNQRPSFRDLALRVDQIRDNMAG
Description: Recombinant human JAK2 catalytic domain (amino acids 808-1132; catalog number PV4210) was purchased from Invitrogen. 0.025 mU of JAK2 was incubated with 2.5 μg polyGT substrate (Sigma catalog number P0275) in kinase reaction buffer (5 mM MOPS pH 7.5, 9 mM MgAc, 0.3 mM EDTA, 0.06% Brij and 0.6 mM DTT, 1 μM non-radioactive ATP, 0.25 μCi 33P-gamma-ATP (GE Healthcare, catalog number AH9968) final concentrations) with or without 5 μL containing test compound or vehicle (DMSO, 1% final concentration), in a total volume of 25 μL, in a polypropylene 96-well plate (Greiner, V-bottom). After 90 min at 30° C., reactions were stopped by adding of 25 μL/well of 150 mM phosphoric acid. All of the terminated kinase reaction was transferred to prewashed (75 mM phosphoric acid) 96 well filter plates (Perkin Elmer catalog number 6005177) using a cell harvester (Perkin Elmer). Plates were washed 6 times with 300 μL per well of a 75 mM phosphoric acid solution and the bottom of the plates was sealed. 40 μL/well of Microscint-20 was added, the top of the plates was sealed and readout was performed using the Topcount (Perkin Elmer). Kinase activity was calculated by subtracting counts per minute (cpm) obtained in the presence of a positive control inhibitor (10 μM staurosporine) from cpm obtained in the presence of vehicle. The ability of a test compound to inhibit this activity was determined as: Percentage inhibition=((cpm determined for sample with test compound present−cpm determined for sample with positive control inhibitor) divided by (cpm determined in the presence of vehicle−cpm determined for sample with positive control inhibitor))*100%.
as §1, with “JAK2” for “JAK1”

Compound: O=C(Nc1nc2cccc(-c3ccc(OCc4cccnc4)cc3)n2n1)C1CC1 [Compound 36, N-(5-(4-(pyridin-3-ylmethoxy)phenyl)-[1,2,4]triazolo[1,5-a]pyridin-2-yl)cyclopropanecarboxamide]
- Microsomal stability Human (%), compound remaining after 60 minutes [1]: 11.65%
- IC50 [2]: 0.1 to 100 nM
- IC50 [3]: 1 to 100 nM

Compound: N#Cc1ccc(COc2ccc(-c3cccc4nc(NC(=O)C5CC5)nn34)cc2)cn1 [Compound 176, N-(5-(4-((6-cyanopyridin-3-yl)methoxy)phenyl)-[1,2,4]triazolo[1,5-a]pyridin-2-yl)cyclopropanecarboxamide]
- Microsomal stability Human (%), compound remaining after 60 minutes [1]: 157.1%
- IC50 [2]: 0.1 to 100 nM
- IC50 [3]: 1 to 100 nM

Compound: CC(=O)Nc1ccc(COc2ccc(-c3cccc4nc(NC(=O)C5CC5)nn34)cc2)cc1 [Compound 92, N-(5-(4-(4-acetamidobenzyloxy)phenyl)-[1,2,4]triazolo[1,5-a]pyridin-2-yl)cyclopropanecarboxamide]
- Microsomal stability Human (%), compound remaining after 60 minutes [1]: 30.21%
- IC50 [2]: 0.1 to 100 nM

Compound: O=C(Nc1nc2cccc(-c3ccc(OCc4ccccn4)cc3)n2n1)C1CC1 [Compound 37, N-(5-(4-(pyridin-2-ylmethoxy)phenyl)-[1,2,4]triazolo[1,5-a]pyridin-2-yl)cyclopropanecarboxamide]
- Microsomal stability Human (%), compound remaining after 60 minutes [1]: 70.98%
- IC50 [2]: 0.1 to 100 nM
- IC50 [3]: 1 to 100 nM

Compound: O=C(Nc1nc2cccc(-c3ccc(NCc4ccccc4)cc3)n2n1)C1CC1 [Compound 72, N-(5-(4-(benzylamino)phenyl)-[1,2,4]triazolo[1,5-a]pyridin-2-yl)cyclopropanecarboxamide]
- Microsomal stability Human (%), compound remaining after 60 minutes [1]: 4.88%
- IC50 [2]: 0.1 to 100 nM
- IC50 [3]: 1 to 100 nM

Compound: O=C(Nc1nc2cccc(-c3ccc(OCc4ccccc4)cc3)n2n1)C1CC1 [Compound 12, N-(5-(4-(benzyloxy)phenyl)-[1,2,4]triazolo[1,5-a]pyridin-2-yl)cyclopropanecarboxamide]
- Microsomal stability Human (%), compound remaining after 60 minutes [1]: 70%
- IC50 [2]: 0.1 to 100 nM
- IC50 [3]: 1 to 100 nM

Compound: O=C(Nc1nc2cccc(-c3ccc(OCc4ccccc4)nc3)n2n1)C1CC1 [Compound 57, Cyclopropanecarboxylic acid [5-(6-benzyloxy-pyridin-3-yl)-[1,2,4]triazolo[1,5-a]pyridin-2-yl]-amide]
- Microsomal stability Human (%), compound remaining after 60 minutes [1]: 42.75%
- IC50 [2]: 0.1 to 100 nM
- IC50 [3]: 1 to 100 nM

Compound: O=C(Nc1nc2cccc(-c3ccc(OCc4ccc(C(F)(F)F)nc4)cc3)n2n1)C1CC1 [Compound 78, N-(5-(4-((6-(trifluoromethyl)pyridin-3-yl)methoxy)phenyl)-[1,2,4]triazolo[1,5-a]pyridin-2-yl)cyclopropanecarboxamide]
- Microsomal stability Human (%), compound remaining after 60 minutes [1]: 78.21%
- IC50 [2]: 0.1 to 100 nM
- IC50 [3]: 1 to 100 nM
